Common to all, as to assay: Minimum inhibitory concentration, standard serial dilution method, nutrient agar
Common to all, as to assay type: cell-based

The subject of assay [1] is Escherichia coli K12 JR66/W677. To be noted: K12JR66/W677, 18 h, read-out: Minimum Inhibitory Concentration. The text has this: (§1) 3'-Deoxyneamine, 3'-deoxy-6'-N-methylneamine, 3'-deoxyribostamycin, 3'-deoxy-6'-N-methylribostamycin, 3'-deoxykanamycin B, 3'-deoxy-6'-N-methylkanamycin B and 3'-deoxyparomamine which are produced by the process of this invention have been confirmed to be identical to their authentic samples, respectively, by making comparison between their n.m.r. spectra (in D2 O), mass spectra of their derivatives, thin layer chromatography on silica gel (developed with 4:5:2:5 n-butanolethanol-chloroform-17% aqueous ammonia) and antibacterial spectra. […] These 3'-deoxy derivatives are of low toxicity similarly to their parent substances and are useful for the therapeutic treatment of infections by gram-positive and gram-negative bacteria. 3'-Deoxyparomamine is useful as an intermediate for synthesis of any valuable derivative of aminoglycosidic antibiotics. The minimum inhibitory concentrations (mcg/ml) of these 3'-deoxy derivatives against various microorganisms were determined according to a standard serial dilution method using nutrient agar incubation medium at 37° C, the estimation being effected after 18 hours incubation.

For assay [2], the system named is Escherichia coli K12 LA290 R55. As to conditions: K12LA290R55, 18 h, read-out: Minimum Inhibitory Concentration.
Excerpt: as §1

The test system of assay [3] is Escherichia coli K12 ML1410. As to conditions: K12ML1410, 18 h, read-out: Minimum Inhibitory Concentration.
Excerpt: as §1

In assay [4] the test system is Escherichia coli K12 ML1629. To be noted: K12ML1629, 18 h, read-out: Minimum Inhibitory Concentration.
Excerpt: as §1

Assay [5] relates to Escherichia coli K12 W677. As to conditions: K12W677, 37° C, 18 hours.
Excerpt: as §1

In assay [6] the test system is Escherichia coli K12. As to conditions: K12, 18 h, read-out: Minimum Inhibitory Concentration.
Excerpt: as §1

In assay [7] the test system is Pseudomonas aeruginosa A3. As to conditions: A3, 18 h, read-out: Minimum Inhibitory Concentration.
Excerpt: as §1

Assay [8] relates to Pseudomonas aeruginosa GN315. As to conditions: GN315, 18 h, read-out: Minimum Inhibitory Concentration.
Excerpt: as §1

Assay [9] has as its system Pseudomonas aeruginosa No.12. To be noted: NO.12, 18 h, read-out: Minimum Inhibitory Concentration.
Excerpt: as §1

Assay [10] has as its system Staphylococcus aureus FDA 209P. As to conditions: FDA209P, 18 h, read-out: Minimum Inhibitory Concentration.
Excerpt: as §1

In brackets after ≈: the same amount, converted by molar mass. Some results are limits rather than exact numbers.

Take `NC[C@H]1O[C@H](O[C@H]2[C@H](O)[C@@H](O)[C@H](N)C[C@@H]2N)[C@H](N)C[C@@H]1O` [3'-Deoxyneamine, 3'-deoxyneamine]: the MIC was greater than 100 µg/mL in [1]; 100 µg/mL (≈ 326 µM) in [2]; 6.25 µg/mL (≈ 20.4 µM) in [3]; 6.25 µg/mL (≈ 20.4 µM) in [4]; 6.25 µg/mL (≈ 20.4 µM) in assay [5]; 6.25 µg/mL (≈ 20.4 µM) in assay [6]. Moreover, the MIC in [7] is 6.25 µg/mL (≈ 20.4 µM); in [8] it was greater than 100 µg/mL; in assay [9] it was 6.25 µg/mL (≈ 20.4 µM); in assay [10], 3.12 µg/mL (≈ 10.2 µM).
`NC[C@H]1O[C@H](O[C@H]2[C@H](O)[C@@H](O[C@H]3O[C@H](CO)[C@@H](O)[C@H](N)[C@H]3O)[C@H](N)C[C@@H]2N)[C@H](N)C[C@@H]1O` [3'-Deoxykanamycin B, 3'-deoxykanamycin B]: the MIC in assay [1] was determined as 50 µg/mL (≈ 107 µM); in assay [2] it was 50 µg/mL (≈ 107 µM); in assay [3], 0.78 µg/mL (≈ 1.67 µM); in [4], 0.78 µg/mL (≈ 1.67 µM); in assay [5] it was 1.56 µg/mL (≈ 3.34 µM); in assay [6] it was 0.78 µg/mL (≈ 1.67 µM). For the same molecule, the MIC is 0.78 µg/mL (≈ 1.67 µM) in [7], 100 µg/mL (≈ 214 µM) in [8], 0.78 µg/mL (≈ 1.67 µM) in assay [9] and 0.78 µg/mL (≈ 1.67 µM) in assay [10].
As for `NC[C@H]1O[C@H](O[C@H]2[C@H](O[C@@H]3O[C@H](CO)[C@@H](O)[C@H]3O)[C@@H](O)[C@H](N)C[C@@H]2N)[C@H](N)C[C@@H]1O` [3'-Deoxyribostamycin, 3'-deoxyribostamycin], the MIC in [1] was greater than 100 µg/mL; in assay [2], greater than 100 µg/mL; in assay [3], 6.25 µg/mL (≈ 14.3 µM); in assay [4] it was greater than 100 µg/mL; in assay [5] it was 3.12 µg/mL (≈ 7.12 µM); in [6], 6.25 µg/mL (≈ 14.3 µM). Besides, the MIC in [7] is 3.12 µg/mL (≈ 7.12 µM); in [8] it was greater than 100 µg/mL; in assay [9] it was 3.12 µg/mL (≈ 7.12 µM); in [10] it was 6.25 µg/mL (≈ 14.3 µM).
As to `CNC[C@H]1O[C@H](O[C@H]2[C@H](O)[C@@H](O[C@H]3O[C@H](CO)[C@@H](O)[C@H](N)[C@H]3O)[C@H](N)C[C@@H]2N)[C@H](N)C[C@@H]1O` [3'-Deoxy-6'-N-methylkanamycin B, 3'-deoxy-6'-N-methylkanamycin B], the MIC in assay [1] was determined as 50 µg/mL (≈ 104 µM); in assay [2], 50 µg/mL (≈ 104 µM); in [3], 1.56 µg/mL (≈ 3.24 µM); in assay [4], 1.56 µg/mL (≈ 3.24 µM); in assay [5], 1.56 µg/mL (≈ 3.24 µM); in assay [6], 0.78 µg/mL (≈ 1.62 µM). In addition, the MIC was 0.78 µg/mL (≈ 1.62 µM) in assay [7], 6.25 µg/mL (≈ 13 µM) in [8], 0.78 µg/mL (≈ 1.62 µM) in assay [9] and 1.56 µg/mL (≈ 3.24 µM) in assay [10].
Take `N[C@@H]1C[C@H](O)[C@@H](CO)O[C@@H]1O[C@H]1[C@H](O)[C@@H](O)[C@H](N)C[C@@H]1N` [3'-Deoxyparomamine, 3'-deoxyparomamine]: the MIC in [1] is greater than 100 µg/mL; in assay [2] it was 50 µg/mL (≈ 163 µM); in assay [3], greater than 100 µg/mL; in [4], 100 µg/mL (≈ 325 µM); in [5], greater than 100 µg/mL; in assay [6], 100 µg/mL (≈ 325 µM). The MIC in assay [7] is greater than 100 µg/mL; in assay [8] it was greater than 100 µg/mL; in assay [9], greater than 100 µg/mL; in assay [10], 50 µg/mL (≈ 163 µM).

The values are drawn from US4060682A, “Process for the synthetic production of 3-deoxy derivative of an aminoglycosidic antibiotic” (priority 1974, dated 1977).
